Data reported in patent US11318135B2 (priority 2020, dated 2022).
“Also recorded” adds a separate entry of the source. Read-outs that look alike come from different tables or passages of the source.

Legend:
[1] = 300 mg/kg/d from day 6 to day 13, cited from earlier work
Vero E6 cells = conditions: Vero E6, 48 h
SARS coronavirus = assay type: in vivo, A129 mice; conditions: for Death rate: once daily from 4 h to 144 h after challenge, 1*10^6 PFU; for Protection of SARS coronavirus-infected mice from death: intraperitoneal once a day from 4 hours after challenge, 50-200 mg/kg
EBOV-Zaire type [2] = conditions: virus titer in supernatant, Vero E6 cell line, read-out: half-inhibitory concentration (IC50); cited from earlier work
[3] = cited from earlier work
EBOV-Zaire type [4] = conditions: drug concentration of above 62.5 mg/L; cited from earlier work
Vero C1008 cells = conditions: high concentration of 1.95 g/L; cited from earlier work
SARS-CoV-2 = assay type: cell-based, SARS-CoV-2 (nCoV-2019BetaCoV/Wuhan/WIV04/2019 strain)

Compound: NC(=O)c1nc(F)cnc1O [Favipiravir, 6-fluoro-3-hydroxypyrazine-2-carboxamide]
- protection rate ([1]; challenge dose of 100% death of placebo group): 100%
- body weight, glutamic-pyruvic transaminase, glutamic-oxalic transaminase, viremia [1]: improved significantly
- Cell viability (% of vehicle control) (Vero E6 cells; 0.14 μM): 101.61 ± 0.74 % of vehicle control
- Cell viability (% of vehicle control) (Vero E6 cells; 0.41 μM): 101.38 ± 3.85 % of vehicle control
- Cell viability (% of vehicle control) (Vero E6 cells; 1.23 μM): 98.57 ± 1.90 % of vehicle control
- Cell viability (% of vehicle control) (Vero E6 cells; 3.70 μM): 99.09 ± 4.91 % of vehicle control
- Cell viability (% of vehicle control) (Vero E6 cells; 11.11 μM): 96.42 ± 4.77 % of vehicle control
- Cell viability (% of vehicle control) (Vero E6 cells; 33.33 μM): 95.21 ± 4.43 % of vehicle control
- Cell viability (% of vehicle control) (Vero E6 cells; 100 μM): 96.37 ± 1.26 % of vehicle control
- Death rate (SARS coronavirus; 50 mg/kg intraperitoneal): 100%
- Death rate (SARS coronavirus; 100 mg/kg intraperitoneal): 50%
- Death rate (SARS coronavirus; 200 mg/kg intraperitoneal): 0%
- Protection of SARS coronavirus-infected mice from death (SARS coronavirus): can effectively protect mice; also recorded: the survival rate is dose-dependent
- Protection of SARS coronavirus-infected mice from death (SARS coronavirus; listed as compound represented by Formula I): significant protective effect
- IC50 (EBOV-Zaire type [2]): 67 µM
- mice protected from death ([3]; intragastric 300 mg/kg/d (2 times/d, 150 mg/kg per time) from 1 h after challenge for 14 days): 100%
- body weight of the mice in the administration group ([3]; intragastric 300 mg/kg/d for 14 days): significantly improved
- Inhibition of cytopathic effect (CPE) of EBOV-Zaire type (EBOV-Zaire type [4]): completely inhibit
- Cytotoxicity to Vero C1008 cells (Vero C1008 cells): not cytotoxic
- Reduction of viral RNA load in the cells (SARS-CoV-2): the inhibitory activity is dose-dependent
- Inhibition of replication of the SARS-CoV-2 virus genome in the infected supernatant (SARS-CoV-2; at concentrations of 100 μM, 33 μM, 11.1 μM and 3.7 μM): could effectively inhibit
- Reduction of viral nucleic acid load in cells infected by SARS-CoV-2 (SARS-CoV-2; at micromolar concentration level): can reduce the viral nucleic acid load
